Measured values: patent US20180064829A1, “FLUORESCENT BISPHOSPHONATE ANALOGS” (University of Southern California, priority 2015, published 2018)
Like-named read-outs stand apart in the source and are kept apart here.

Assays:
[1] = assumed the same as the corresponding fluorescent dye, cited from earlier work
[2] = UV-VIS absorption and fluorescence emission spectra; format: physicochemical; conditions: 0.1M phosphate buffer (1x PBS for 7d5); ± 1 nm error
Procedure: All labeled samples were dissolved in water and diluted with 0.1 M phosphate buffer or 1×PBS (for 7d5). Assuming that the labeled bisphosphonates have the same extinction coefficient (E) as the carboxylic acid of the free fluorescent label, the final concentrations for all labeled products were calculated from UV-VIS absorption spectra at λ=493 nm (ε=73000 M^−1 cm^−1 at pH 7.2) for FAM conjugates (7a1-7a3, 7b1, 7c1, 7d1-7d2, 7e1-7e2, 7f1-7f2), λ=567.5 nm (ε=114850 M^−1cm^−1 at pH 7.5) for RhR-X conjugates (7a4, 7b2, 7c2), λ=580 nm (c=72000 M^−1cm^−1 at pH 8.0) for ROX conjugates (7a5, 7b3), λ=648 nm (ε=240000 M^−1cm^−1 at pH 7.2) for AF647 conjugates (7a6, 7b4, 7d3), λ=774 nm (ε=240000 M^−1cm^−1 at pH 7.4) for 800CW conjugates (7d4), λ=644 nm (ε=271000 M^−1cm^−1 at pH 7.4, 1×PBS) for Sulfo-Cy5 conjugates (7d5).
Emission spectra for FAM and RhR-X conjugates were recorded using an excitation wavelength of 490 nm or 520 nm, respectively. Emission spectra for AF647 conjugates and Sulfo-Cy5 conjugates were recorded using an excitation wavelength of 600 nm. Emission spectra of 5(6)-ROX conjugates were recorded using an excitation wavelength of 575 nm. Emission spectra of IRDye CW800 conjugate was recorded using an excitation wavelength of 750 nm. The set-up of excitation slit, emission slit, integration time and increment were determined to get optimal spectra for each compound respectively, depending on the sample concentration and spectrometer used.

[3] = tested on: unprenylated Rap1A (uRap1A); assay: Prenylation assay: Western blot for unprenylated Rap1A in J774.2 macrophages; format: cell-based, mouse; conditions: 10 or 100 μM, 24 h, FIG. 5A-C
Procedure: To determine the effect of fluorescent BP probes on protein prenylation, J774.2 mouse macrophages were plated out at 2×10^5 cells/mL in 24-well plates and left to adhere overnight. Cells were then treated with 10 or 100 μM of fluorescent analogues of RIS, dRIS, and ZOL, the respective native BP, or vehicle, for 24 h. Cells were lysed in radioimmunoprecipitation buffer, and proteins were separated by sodium dodecyl sulfate polyacrylamide gel electrophoresis and transferred to polyvinyl difluoride membranes by western blotting. Membranes were then incubated with antibodies to the unprenylated form of Rap1A (uRap1A) and the housekeeping protein β-actin, which were detected by incubation with fluorescently-labeled secondary antibodies and scanning of membranes on a LI-COR Infrared Imager. Results shown are representative of 2 independent experiments. The ratio between abundance of unprenylated RaplA and β-actin is indicated for each sample below the blots in FIG. 5.

Molecule | Extinction coefficient ([1]; pH 7.2, 0.1M phosphate buffer) | Maximum absorption wavelength (λmax (abs), nm) [2] | Maximum emission wavelength (λmax (em), nm) [2] | accumulation of unprenylated Rap1A (anti-prenylation activity) [3] | Extinction coefficient ([1]; pH 7.0, 0.1M phosphate buffer) | Extinction coefficient ([1]; pH 8.0, 0.1M phosphate buffer) | Extinction coefficient ([1]; pH 7.5, 0.1M phosphate buffer) | Extinction coefficient ([1]; 1x PBS, pH 7.4)
1-(3-(3-carboxy-4-(6-hydroxy-3-oxo-3H-xanthen-9-yl)benzamido)-2-hydroxypropyl)-3-(2-hydroxy-2,2-diphosphonoethyl)pyridin-1-ium [Compound 5-FAM-RIS] | 73,000 (pH 7.2) M^−1cm^−1 | 493 nm | 521 nm | clearly detectable | – | – | – | –
1-(3-(4-carboxy-3-(6-hydroxy-3-oxo-3H-xanthen-9-yl)benzamido)-2-hydroxypropyl)-3-(2-hydroxy-2,2-diphosphonoethyl)pyridin-1-ium [Compound 6-FAM-RIS] | 73,000 (pH 7.2) M^−1cm^−1 | 493 nm | 517 nm | clearly detectable | – | – | – | –
2-(5-(3-(6-((2-hydroxy-3-(1-(2-hydroxy-2,2-diphosphonoethyl)-1H-imidazol-3-ium-3-yl)propyl)amino)-6-oxohexyl)-3-methyl-5-sulfo-1-(3-sulfopropyl)indolin-2-ylidene)penta-1,3-dien-1-yl)-3,3-dimethyl-5-sulfo-1-(3-sulfopropyl)-3H-indol-1-ium [AF647-ZOL] | – | 648.5 nm | 666 nm | – | 240,000 (pH 7.0) M^−1cm^−1 | – | – | –
16-[2-carboxy-4-({2-hydroxy-3-[4-(2-hydroxy-2,2-diphosphonoethyl)pyridin-1-ium-1-yl]propyl}carbamoyl)phenyl]-3-oxa-9λ^5,23-diazaheptacyclo[17.7.1.1^5,9.0^2,17.0^4,15.0^23,27.0^13,28]octacosa-1(27),2(17),4,9(28), 13,15,18-heptaen-9-ylium [5(6)-ROX-RIS] | – | 580 nm | 606 nm | shows activity | – | 72,000 (pH 8.0) M^−1cm^−1 | – | –
16-[2-carboxy-4-({3-[4-(2-carboxy-2-hydroxy-2-phosphonoethyl)pyridin-1-ium-1-yl]-2-hydroxypropyl}carbamoyl)phenyl]-3-oxa-9λ^5,23-diazaheptacyclo[17.7.1.1^5,9.0^2,17.0^4,15.0^23,27.0^13,28]octacosa-1(27),2(17),4,9(28), 13,15,18-heptaen-9-ylium [5(6)-ROX-RISPC] | – | 579 nm | 606 nm | – | – | 72,000 (pH 8.0) M^−1cm^−1 | – | –
CCN(CC)c1ccc2c(-c3ccc(S(=O)(=O)NCCCCCC(=O)NCC(O)C[n+]4cccc(CC(O)(P(=O)(O)O)P(=O)(O)O)c4)cc3S(=O)(=O)O)c3ccc(=[N+](CC)CC)cc-3oc2c1 (stereo not drawn) [5(6)-RhR-RIS, 1-{3-[6-({4-[6-(diethylamino)-3-(diethylimino)-3H-xanthen-9-yl]-3-sulfobenzene}sulfonamido)hexanamido]-2-hydroxypropyl}-3-(2-hydroxy-2,2-diphosphonoethyl)pyridinium] | – | 567.5 nm | 589 nm | – | – | – | 114,850 (pH 7.5) M^−1cm^−1 | –
CCN(CC)c1ccc2c(-c3ccc(S(=O)(=O)NCCCCCC(=O)NCC(O)C[n+]4cccc(CC(O)(C(=O)O)P(=O)(O)O)c4)cc3S(=O)(=O)O)c3ccc(=[N+](CC)CC)cc-3oc2c1 (stereo not drawn) [5(6)-RhR-RISPC, 3-(2-carboxy-2-hydroxy-2-phosphonoethyl)-1-{3-[6-({4-[6-(diethylamino)-3-(diethylimino)-3H-xanthen-9-yl]-3-sulfobenzene}sulfonamido)hexanamido]-2-hydroxypropyl}pyridinium] | – | 568 nm | 589 nm | – | – | – | 114,850 (pH 7.5) M^−1cm^−1 | –
CCN(CC)c1ccc2c(-c3ccc(S(=O)(=O)NCCCCCC(=O)NCC(O)C[n+]4cccc(CC(P(=O)(O)O)P(=O)(O)O)c4)cc3S(=O)(=O)O)c3ccc(=[N+](CC)CC)cc-3oc2c1 (stereo not drawn) [5(6)-RhR-dRIS, 1-{3-[6-({4-[6-(diethylamino)-3-(diethylimino)-3H-xanthen-9-yl]-3-sulfobenzene}sulfonamido)hexanamido]-2-hydroxypropyl}-3-(2,2-diphosphonoethyl)pyridin-1-ium] | – | 567.5 nm | 589 nm | – | – | – | 114,850 (pH 7.5) M^−1cm^−1 | –
CC1(C)C(C=CC=CC=C2N(CCCS(=O)(=O)O)c3ccc(S(=O)(=O)O)cc3C2(C)CCCCCC(=O)NCC(O)C[n+]2cccc(CC(O)(C(=O)O)P(=O)(O)O)c2)=[N+](CCCS(=O)(=O)O)c2ccc(S(=O)(=O)O)cc21 (stereo not drawn) [AF647-RISPC, 2-(5-(3-(6-((3-(3-(2-carboxy-2-hydroxy-2-phosphonoethyl)pyridin-1-ium-1-yl)-2-hydroxypropyl)amino)-6-oxohexyl)-3-methyl-5-sulfo-1-(3-sulfopropyl)indolin-2-ylidene)penta-1,3-dien-1-yl)-3,3-dimethyl-5-sulfo-1-(3-sulfopropyl)-3H-indol-1-ium] | – | 648 nm | 666 nm | – | 240,000 (pH 7.0) M^−1cm^−1 | – | – | –
O=C(NCC(O)C[n+]1cc(CC(O)(P(=O)(O)O)P(=O)(O)O)n2ccccc21)c1ccc(-c2c3ccc(=O)cc-3oc3cc(O)ccc23)c(C(=O)O)c1 (stereo not drawn) [Compound 5-FAM-MIN, 1-(3-(3-carboxy-4-(6-hydroxy-3-oxo-3H-xanthen-9-yl)benzamido)-2-hydroxypropyl)-3-(2-hydroxy-2,2-diphosphonoethyl)imidazo[1,2-a]pyridin-1-ium] | 73,000 (pH 7.2) M^−1cm^−1 | 493 nm | 522 nm | – | – | – | – | –
O=C(NCC(O)C[n+]1cc(CC(O)(C(=O)O)P(=O)(O)O)n2ccccc21)c1ccc(-c2c3ccc(=O)cc-3oc3cc(O)ccc23)c(C(=O)O)c1 (stereo not drawn) [Compound 5-FAM-MINPC, 3-(2-carboxy-2-hydroxy-2-phosphonoethyl)-1-(3-(3-carboxy-4-(6-hydroxy-3-oxo-3H-xanthen-9-yl)benzamido)-2-hydroxypropyl)imidazo[1,2-a]pyridin-1-ium] | 73,000 (pH 7.2) M^−1cm^−1 | 493 nm | 522 nm | – | – | – | – | –
O=C(NCC(O)C[n+]1cc(CC(O)(P(=O)(O)O)P(=O)(O)O)n2ccccc21)c1ccc(C(=O)O)c(-c2c3ccc(=O)cc-3oc3cc(O)ccc23)c1 (stereo not drawn) [Compound 6-FAM-MIN, 1-(3-(4-carboxy-3-(6-hydroxy-3-oxo-3H-xanthen-9-yl)benzamido)-2-hydroxypropyl)-3-(2-hydroxy-2,2-diphosphonoethyl)imidazo[1,2-a]pyridin-1-ium] | 73,000 (pH 7.2) M^−1cm^−1 | 493 nm | 518 nm | – | – | – | – | –
O=C(NCC(O)C[n+]1cc(CC(O)(C(=O)O)P(=O)(O)O)n2ccccc21)c1ccc(C(=O)O)c(-c2c3ccc(=O)cc-3oc3cc(O)ccc23)c1 (stereo not drawn) [Compound 6-FAM-MINPC, 3-(2-carboxy-2-hydroxy-2-phosphonoethyl)-1-(3-(4-carboxy-3-(6-hydroxy-3-oxo-3H-xanthen-9-yl)benzamido)-2-hydroxypropyl)imidazo[1,2-a]pyridin-1-ium] | 73,000 (pH 7.2) M^−1cm^−1 | 493 nm | 517 nm | – | – | – | – | –
CN1/C(=C/C=C/C=C/C2=[N+](CCCCCC(=O)NCC(O)C[n+]3ccn(CC(O)(P(=O)(O)O)P(=O)(O)O)c3)c3ccc(S(=O)(=O)[O-])cc3C2(C)C)C(C)(C)c2cc(S(=O)(=O)[O-])ccc21 (stereo not drawn) [Sulfo-Cy5-ZOL, 1-(6-((2-hydroxy-3-(1-(2-hydroxy-2,2-diphosphonoethyl)-1H-imidazol-3-ium-3-yl)propyl)amino)-6-oxohexyl)-3,3-dimethyl-2-((1E,3E,5E)-5-(1,3,3-trimethyl-5-sulfonatoindolin-2-ylidene)penta-1,3-dien-1-yl)-3H-indol-1-ium-5-sulfonate] | – | 644 nm | 663 nm | – | – | – | – | 271,000 (1x PBS, pH 7.4) M^−1cm^−1
